{"source": "patent US6783949B1", "about": "“Processes for determining whether a test substance contains lipases or lipase inhibitors” (Aventis Pharma Deutschland GmbH, priority 1999, dated 2004)", "biological_target": "T1, HSL (Rattus norvegicus, UniProt P15304)", "T1 construct": "The partially purified HSL can be stored at −70° C. for 4 to 6 weeks; from tissue; host or cells: rat epididymal fat cells (male Wistar rats)", "T1 sequence (P15304 1-768 isoform P15304-2)": "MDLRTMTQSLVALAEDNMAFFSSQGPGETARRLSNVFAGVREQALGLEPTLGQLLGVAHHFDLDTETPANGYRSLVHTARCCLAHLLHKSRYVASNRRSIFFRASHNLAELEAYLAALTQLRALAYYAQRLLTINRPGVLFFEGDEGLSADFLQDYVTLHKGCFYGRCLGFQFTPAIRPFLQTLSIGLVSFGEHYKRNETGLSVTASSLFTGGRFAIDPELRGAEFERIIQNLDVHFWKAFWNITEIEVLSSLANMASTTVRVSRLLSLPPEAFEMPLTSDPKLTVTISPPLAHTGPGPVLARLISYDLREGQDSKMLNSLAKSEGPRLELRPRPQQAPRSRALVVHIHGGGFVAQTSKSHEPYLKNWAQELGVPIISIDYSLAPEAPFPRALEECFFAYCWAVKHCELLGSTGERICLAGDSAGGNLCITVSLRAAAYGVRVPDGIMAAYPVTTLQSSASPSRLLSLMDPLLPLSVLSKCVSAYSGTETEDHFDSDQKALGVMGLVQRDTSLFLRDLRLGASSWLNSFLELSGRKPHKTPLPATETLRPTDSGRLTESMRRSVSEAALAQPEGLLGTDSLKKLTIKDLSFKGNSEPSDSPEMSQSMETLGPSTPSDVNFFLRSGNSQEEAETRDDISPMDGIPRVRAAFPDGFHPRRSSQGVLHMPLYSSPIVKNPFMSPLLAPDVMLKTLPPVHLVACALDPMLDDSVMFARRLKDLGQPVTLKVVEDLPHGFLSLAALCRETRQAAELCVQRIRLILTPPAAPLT", "experiment": "Indirect NAG assay (extinction increase at 481 nm)", "format": "biochemical", "procedure": "A typical reaction is carried out at 30° C. for 60 min, for example in 1.5 ml Eppendorf vessels or 96-hole plates. […] 180 μl of the substrate solution (20 μg/ml of phosphatidylcholine, 10 μg/ml of phosphatidylinositol, 50 μg/ml of NAG in assay buffer) are added. After a preincubation for 15 min at 30° C., 20 μl of HSL in assay buffer are pipetted in and the extinction is immediately measured (see above) at 481 nm in a cuvette photometer (0.5 ml cuvette) or microtiter plate reader. After a certain incubation time, which is variable and depends on the chosen enzyme concentration and can be between 2 and 240 minutes, in this case incubation at 30° C. for 60 min, the extinction is measured again. The increase in the extinction in the yellow region, in this case at 481 nm, is a measure of the enzyme activity.\nIsolated rat fat cells are obtained from epididymal fatty tissue from untreated male rats (Wistar, 220-250 g) by collagenase treatment according to published processes. The fat cells from 10 rats are washed three times by flotation with 50 ml each of homogenization buffer ([…], pH 7.4, 0.25 M sucrose, 1 mM ethylenediamine-N,N,N′,N′-tetraacetic acid (EDTA), 1 mM dithiothreitol (DTT), 10 μg/ml of leupeptin, 10 μg/ml of antipain, 20 μg/ml of pepstatin) and finally taken up in 10 ml of homogenization buffer. The fat cells are homogenized in a Teflon-in-glass homogenizer (Braun-Melsungen) by 10 strokes at 1500 rpm and 15° C. The homogenizate is centrifuged (Sorvall SM24 tubes, 5000 rpm, 10 min, 4° C.). The […] between the overlying fatty layer and the pellet is removed and the centrifugation is repeated. The […] resulting from this is centrifuged again (Sorvall SM24 tubes, 20,000 rpm, 45 min, 4° C.). […] After incubation for 60 min at 4° C. (shake at intervals of 15 min), the batch is centrifuged (Sorvall SM24 tubes, 3000 rpm, 10 min, 4° C.). The supernatant is brought to pH 5.2 by addition of glacial acetic acid and incubated at 4° C. for 30 min. […] The suspension is dialyzed overnight at 4° C. against 25 mM TRIS/HCl, pH 7.4, 50% glycerol, 1 mM DTT, and 10 μg/ml of leupeptin, pepstatin, and antipain and then applied to a hydroxylapatite column (0.1 g per 1 ml of suspension, equilibrated with 10 mM potassium phosphate, pH 7.0, 30% glycerol, 1 mM DTT). The column is washed with four volumes of equilibration buffer at a flow rate of 20 to 30 ml/h. The HSL is eluted with a volume of equilibration buffer which contains 0.5 M potassium phosphate, then dialyzed (see above) and concentrated 5 to 10 times by ultrafiltration (Amicon Diaflo PM 10 filter) at 4° C. The partially purified HSL can be stored at −70° C. for 4 to 6 weeks.\n6 mg of phosphatidylcholine and 6 mg of phosphatidylinositol are dissolved in 1 ml of chloroform each. 10 mg of NAG are dissolved in 1 ml of chloroform. […] The chloroform (225 μl total volume) is completely removed by overblowing with a stream of N2. The dried substrate can be stored at 4° C. for up to three days. For the preparation of the phospholipid vesicles/micelles having intercalated NAG (on the test day), the dried substrate is taken up in 20 ml of assay buffer (25 mM TRIS/HCl, pH 7.4; 150 mM NaCl) and two ultrasonic treatments with an ultrasonic probe (Branson Sonifier type 11, standard microtip): 1st treatment setting 2, 2×1 min, in between in each case 1 min on ice; 2nd treatment setting 4, 2×1 min, in between in each case 1 min on ice. […] Before use as a substrate (within the next 2 h), the solution is additionally incubated on ice for 15 min.\nThe assay is carried out at 30° C. for 60 min in 1.5 ml Eppendorf vessels or 96-hole plates.", "key": {"[1]": {"settings": "HSL 40 μg, 60 min, NAG 0.05 mg/ml"}, "[2]": {"settings": "HSL 60 μg, 60 min, NAG 0.05 mg/ml"}, "[3]": {"settings": "HSL 80 μg, 60 min, NAG 0.05 mg/ml"}}}
{"smiles": "O=C(CCCCCCCCCCCNc1ccc([N+](=O)[O-])c2nonc12)OCC(O)CO", "note": "(centres unmarked) [Compound (3)]", "values": [{"measurement": "Increase in the absorption at 481 nm", "setting": "HSL 40 μg, 20 min, NAG 0.05 mg/ml", "value": "477 ± 182", "unit": "arb. units"}, {"measurement": "Increase in the absorption at 481 nm", "setting": "HSL 40 μg, 30 min, NAG 0.05 mg/ml", "value": "2249 ± 286", "unit": "arb. units"}, {"measurement": "Increase in the absorption at 481 nm", "setting": "HSL 40 μg, 45 min, NAG 0.05 mg/ml", "value": "2968 ± 321", "unit": "arb. units"}, {"measurement": "Absorption change, Decrease, 550 nm", "setting": "[1]", "value": "91 ± 19", "unit": "arb. units"}, {"measurement": "Absorption change, Increase, 481 nm", "setting": "[1]", "value": "4623 ± 511", "unit": "arb. units"}, {"measurement": "Increase in the absorption at 481 nm", "setting": "[1]", "value": "4065 ± 399", "unit": "arb. units"}, {"measurement": "Increase in the absorption at 481 nm", "setting": "HSL 40 μg, 75 min, NAG 0.05 mg/ml", "value": "4834 ± 462", "unit": "arb. units"}, {"measurement": "Increase in the absorption at 481 nm", "setting": "HSL 40 μg, 90 min, NAG 0.05 mg/ml", "value": "5472 ± 813", "unit": "arb. units"}, {"measurement": "Increase in the absorption at 481 nm", "setting": "HSL 40 μg, 120 min, NAG 0.05 mg/ml", "value": "5702 ± 531", "unit": "arb. units"}, {"measurement": "Increase in the absorption at 481 nm", "setting": "HSL 40 μg, 180 min, NAG 0.05 mg/ml", "value": "5961 ± 560", "unit": "arb. units"}, {"measurement": "Absorption change, Decrease, 550 nm", "setting": "[2]", "value": "62 ± 17", "unit": "arb. units"}, {"measurement": "Absorption change, Increase, 481 nm", "setting": "[2]", "value": "5466 ± 602", "unit": "arb. units"}, {"measurement": "Absorption change, Decrease, 550 nm", "setting": "[3]", "value": "54 ± 15", "unit": "arb. units"}, {"measurement": "Absorption change, Increase, 481 nm", "setting": "[3]", "value": "5913 ± 485", "unit": "arb. units"}, {"measurement": "Activity relative to HSL", "setting": "HSL, conditions optimized for HSL", "value": 100, "unit": "%"}, {"measurement": "Increase in the absorption at 481 nm", "setting": "NAG 0.002 mg/ml, HSL 5 μg, 60 min", "value": "61 ± 9", "unit": "arb. units"}, {"measurement": "Increase in the absorption at 481 nm", "setting": "NAG 0.002 mg/ml, HSL 20 μg, 60 min", "value": "194 ± 23", "unit": "arb. units"}, {"measurement": "Increase in the absorption at 481 nm", "setting": "NAG 0.002 mg/ml, HSL 40 μg, 60 min", "value": "525 ± 77", "unit": "arb. units"}, {"measurement": "Increase in the absorption at 481 nm", "setting": "NAG 0.005 mg/ml, HSL 5 μg, 60 min", "value": "109 ± 17", "unit": "arb. units"}, {"measurement": "Increase in the absorption at 481 nm", "setting": "NAG 0.005 mg/ml, HSL 20 μg, 60 min", "value": "342 ± 58", "unit": "arb. units"}, {"measurement": "Increase in the absorption at 481 nm", "setting": "NAG 0.005 mg/ml, HSL 40 μg, 60 min", "value": "1420 ± 122", "unit": "arb. units"}, {"measurement": "Increase in the absorption at 481 nm", "setting": "NAG 0.01 mg/ml, HSL 5 μg, 60 min", "value": "227 ± 31", "unit": "arb. units"}, {"measurement": "Increase in the absorption at 481 nm", "setting": "NAG 0.01 mg/ml, HSL 20 μg, 60 min", "value": "852 ± 77", "unit": "arb. units"}, {"measurement": "Increase in the absorption at 481 nm", "setting": "NAG 0.01 mg/ml, HSL 40 μg, 60 min", "value": "2745 ± 264", "unit": "arb. units"}, {"measurement": "Increase in the absorption at 481 nm", "setting": "NAG 0.02 mg/ml, HSL 5 μg, 60 min", "value": "388 ± 45", "unit": "arb. units"}, {"measurement": "Increase in the absorption at 481 nm", "setting": "NAG 0.02 mg/ml, HSL 20 μg, 60 min", "value": "1758 ± 195", "unit": "arb. units"}, {"measurement": "Increase in the absorption at 481 nm", "setting": "NAG 0.02 mg/ml, HSL 40 μg, 60 min", "value": "6705 ± 532", "unit": "arb. units"}, {"measurement": "Increase in the absorption at 481 nm", "setting": "NAG 0.05 mg/ml, HSL 5 μg, 60 min", "value": "705 ± 61", "unit": "arb. units"}, {"measurement": "Increase in the absorption at 481 nm", "setting": "NAG 0.05 mg/ml, HSL 20 μg, 60 min", "value": "3002 ± 409", "unit": "arb. units"}, {"measurement": "Increase in the absorption at 481 nm", "setting": "NAG 0.05 mg/ml, HSL 40 μg, 60 min", "value": "11547 ± 912", "unit": "arb. units"}, {"measurement": "Increase in the absorption at 481 nm", "setting": "NAG 0.075 mg/ml, HSL 5 μg, 60 min", "value": "1121 ± 107", "unit": "arb. units"}, {"measurement": "Increase in the absorption at 481 nm", "setting": "NAG 0.075 mg/ml, HSL 20 μg, 60 min", "value": "768 ± 502", "unit": "arb. units"}]}
